From ChEMBL document CHEMBL5528076, “Development of Selective Pyrido[2,3-d]pyrimidin-7(8H)-one-Based Mammalian STE20-Like (MST3/4) Kinase Inhibitors” (J Med Chem, 2024) come the findings set out here.

SMILES strings stand for the structures. Active and inactive are the calls of the source. The rule behind the calls is not given here.

The target of data set [1] is T1, Serine/threonine-protein kinase 4 (Homo sapiens) (UniProt Q13043).
T1 sequence (whole entry): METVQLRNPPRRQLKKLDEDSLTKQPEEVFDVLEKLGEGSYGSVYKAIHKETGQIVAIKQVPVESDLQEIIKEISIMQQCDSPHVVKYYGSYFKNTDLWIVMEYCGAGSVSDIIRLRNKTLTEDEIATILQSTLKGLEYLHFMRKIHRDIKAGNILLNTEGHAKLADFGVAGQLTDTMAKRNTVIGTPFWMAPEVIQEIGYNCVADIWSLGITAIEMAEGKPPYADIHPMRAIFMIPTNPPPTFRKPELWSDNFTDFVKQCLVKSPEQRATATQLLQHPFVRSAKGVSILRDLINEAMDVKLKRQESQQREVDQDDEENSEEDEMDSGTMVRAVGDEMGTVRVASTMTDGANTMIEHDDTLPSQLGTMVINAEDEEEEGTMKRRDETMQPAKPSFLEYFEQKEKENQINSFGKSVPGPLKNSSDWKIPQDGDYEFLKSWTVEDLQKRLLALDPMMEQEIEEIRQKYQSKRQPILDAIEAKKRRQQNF
Kind of data set: Binding affinity to recombinant MST1 (unknown origin) assessed as change in melting temperature by DSF analysis.

Data set [2] concerns the target Casein kinase I isoform epsilon (Homo sapiens, UniProt P49674). Kind of data set: Inhibition of CK1e (unknown origin) expressed in HEK293T cells using NanoGlo as substrate incubated for 20 hrs by NanoBRET assay. The class given is cell-based.
Data set [3] relates to HCT-116. The data set can be described thus: Antiproliferative activity against human HCT-116 cells assessed as reduction in cell viability at 10 uM incubated for 48 hrs by Hoechst33342 staining based analysis. The class given is functional.
Data set [4] has as its target T2, Serine/threonine-protein kinase 3 (Homo sapiens, UniProt Q13188).
T2 sequence (Q13188 whole entry): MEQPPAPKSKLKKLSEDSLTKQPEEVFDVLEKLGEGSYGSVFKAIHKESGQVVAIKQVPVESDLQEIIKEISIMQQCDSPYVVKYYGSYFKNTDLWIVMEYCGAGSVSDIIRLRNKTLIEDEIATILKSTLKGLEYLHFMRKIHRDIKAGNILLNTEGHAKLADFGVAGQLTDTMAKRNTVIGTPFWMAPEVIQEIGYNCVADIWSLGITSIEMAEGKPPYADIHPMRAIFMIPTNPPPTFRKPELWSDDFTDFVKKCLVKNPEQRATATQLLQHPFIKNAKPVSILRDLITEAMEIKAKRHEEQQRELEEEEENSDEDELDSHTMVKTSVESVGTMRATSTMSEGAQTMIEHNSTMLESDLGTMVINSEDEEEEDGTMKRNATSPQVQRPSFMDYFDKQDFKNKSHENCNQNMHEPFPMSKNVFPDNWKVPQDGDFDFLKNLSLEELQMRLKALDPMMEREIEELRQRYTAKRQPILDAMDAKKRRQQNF
Kind of data set: Inhibition of MST2 (unknown origin) expressed in HEK293T cells using NanoGlo as substrate incubated for 20 hrs by NanoBRET assay. It is filed as cell-based.

Data set [5] relates to HCT-116. Kind of data set: Induction of apoptosis in human HCT-116 cells assessed as effect on cell count at 1 uM incubated for 72 hrs by Hoechst33342 staining based analysis. The class given is functional.
The target in data set [6] is Serine/threonine-protein kinase PAK 1 (Homo sapiens) (UniProt Q13153). Kind of data set: Binding affinity to recombinant PAK1 (unknown origin) assessed as change in melting temperature by DSF analysis.
For data set [7], the target named is T3, Serine/threonine-protein kinase Nek2 (Homo sapiens, UniProt P51955).
T3 sequence (P51955 whole entry): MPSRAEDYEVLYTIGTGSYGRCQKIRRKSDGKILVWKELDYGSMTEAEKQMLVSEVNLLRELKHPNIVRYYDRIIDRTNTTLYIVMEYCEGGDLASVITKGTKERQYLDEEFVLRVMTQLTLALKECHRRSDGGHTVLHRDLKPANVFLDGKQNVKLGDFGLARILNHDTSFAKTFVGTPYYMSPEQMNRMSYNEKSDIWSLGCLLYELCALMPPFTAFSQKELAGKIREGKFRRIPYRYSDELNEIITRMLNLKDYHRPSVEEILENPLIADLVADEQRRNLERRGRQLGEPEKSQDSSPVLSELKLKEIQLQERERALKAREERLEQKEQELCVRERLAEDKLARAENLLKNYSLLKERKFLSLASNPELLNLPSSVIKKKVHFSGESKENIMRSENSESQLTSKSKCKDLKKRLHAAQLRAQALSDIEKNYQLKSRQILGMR
Kind of data set: Inhibition of NEK2 (unknown origin) expressed in HEK293T cells using NanoGlo as substrate incubated for 20 hrs by NanoBRET assay. The class given is cell-based.

Data set [8] has as its system HCT-116. The data set can be described thus: Antiproliferative activity against human HCT-116 cells assessed as reduction in cell viability at 10 uM incubated for 6 to 72 hrs by Hoechst33342 staining based analysis. The class given is functional. The following applies: time 6-72 hrs.
The target of data set [9] is Serine/threonine-protein kinase SIK2 (Homo sapiens, UniProt Q9H0K1). The data set can be described thus: Inhibition of SIK2 (unknown origin) expressed in HEK293T cells using NanoGlo as substrate incubated for 20 hrs by NanoBRET assay. The class given is cell-based.
Data set [10] has as its target T4, Serine/threonine-protein kinase 3 (Homo sapiens) (UniProt Q13188).
T4 sequence (whole entry): T2 sequence (Q13188 whole entry)
The data set can be described thus: Binding affinity to recombinant MST2 (unknown origin) assessed as change in melting temperature by DSF analysis.

The subject of data set [11] is HCT-116. The data set can be described thus: Antiproliferative activity against human HCT-116 cells assessed as reduction in cell viability at 1 to 10 uM incubated for 24 hrs by Hoechst33342 staining based analysis. It is filed as functional. As to conditions: dose 1-10 µM.
Data set [12] has as its system HCT-116. Kind of data set: Induction of cell cycle arrest in human HCT-116 cells assessed as accumulation of cells at G1 phase at 10 uM incubated for 72 hrs by FUCCI based analysis. The class given is functional.
Data set [13] is described as follows: Microsomal stability in Sprague-Dawley rat liver microsome incubated for 1 hr by HPLC analysis. It is filed as ADME. The following applies: liver microsomes, read-out: Stability.
Data set [14] has as its target T5, Serine/threonine-protein kinase 26 (Homo sapiens, UniProt Q9P289). The data set can be described thus: Inhibition of MST4 (unknown origin) expressed in HEK293T cells using NanoGlo as substrate incubated for 20 hrs by NanoBRET assay. The class given is cell-based.
Target sequence in this assay (Q9P289 whole entry): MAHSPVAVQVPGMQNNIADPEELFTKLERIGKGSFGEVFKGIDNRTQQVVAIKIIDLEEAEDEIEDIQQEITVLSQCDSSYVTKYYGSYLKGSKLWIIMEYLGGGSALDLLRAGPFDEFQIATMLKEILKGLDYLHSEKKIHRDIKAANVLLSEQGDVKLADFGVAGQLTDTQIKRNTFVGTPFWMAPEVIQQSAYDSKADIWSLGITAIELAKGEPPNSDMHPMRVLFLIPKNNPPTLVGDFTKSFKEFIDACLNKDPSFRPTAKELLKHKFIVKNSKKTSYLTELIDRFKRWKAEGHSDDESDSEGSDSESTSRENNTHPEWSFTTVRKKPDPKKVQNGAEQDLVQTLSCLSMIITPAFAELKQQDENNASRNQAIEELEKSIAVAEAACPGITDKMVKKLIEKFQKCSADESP
Data set [15] addresses T6, Serine/threonine-protein kinase 24 (Homo sapiens, UniProt Q9Y6E0). Kind of data set: Inhibition of MST3 (unknown origin) expressed in lysed HEK293T cells using NanoGlo as substrate incubated for 20 hrs by NanoBRET assay. The class given is cell-based.
Target sequence in this assay (Q9Y6E0 whole entry): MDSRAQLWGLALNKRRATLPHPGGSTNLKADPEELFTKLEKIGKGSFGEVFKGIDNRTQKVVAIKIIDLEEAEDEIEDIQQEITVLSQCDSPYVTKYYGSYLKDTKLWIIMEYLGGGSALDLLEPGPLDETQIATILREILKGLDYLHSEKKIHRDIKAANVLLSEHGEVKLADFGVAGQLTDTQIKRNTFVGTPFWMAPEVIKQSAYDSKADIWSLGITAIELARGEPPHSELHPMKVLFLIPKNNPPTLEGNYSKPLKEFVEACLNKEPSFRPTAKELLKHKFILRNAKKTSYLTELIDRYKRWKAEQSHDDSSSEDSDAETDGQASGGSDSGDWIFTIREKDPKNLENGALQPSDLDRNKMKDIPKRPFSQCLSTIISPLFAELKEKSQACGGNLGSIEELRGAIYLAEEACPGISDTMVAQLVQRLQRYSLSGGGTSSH
The target in data set [16] is T6, Serine/threonine-protein kinase 24. The data set can be described thus: Binding affinity to recombinant MST3 (unknown origin) assessed as change in melting temperature by DSF analysis.
Target sequence in this assay (Q9Y6E0 whole entry, looked up): as the sequence (Q9Y6E0 whole entry) above
The target of data set [17] is T7, Serine/threonine-protein kinase 4 (Homo sapiens, UniProt Q13043).
T7 sequence (Q13043 whole entry): T1 sequence (whole entry)
Kind of data set: Inhibition of MST1 (unknown origin) expressed in HEK293T cells using NanoGlo as substrate incubated for 20 hrs by NanoBRET assay. It is filed as cell-based.

Data set [18] addresses T5, Serine/threonine-protein kinase 26. The data set can be described thus: Binding affinity to recombinant MST4 (unknown origin) assessed as change in melting temperature by DSF analysis.
Target sequence in this assay (Q9P289 2-416 limits assumed): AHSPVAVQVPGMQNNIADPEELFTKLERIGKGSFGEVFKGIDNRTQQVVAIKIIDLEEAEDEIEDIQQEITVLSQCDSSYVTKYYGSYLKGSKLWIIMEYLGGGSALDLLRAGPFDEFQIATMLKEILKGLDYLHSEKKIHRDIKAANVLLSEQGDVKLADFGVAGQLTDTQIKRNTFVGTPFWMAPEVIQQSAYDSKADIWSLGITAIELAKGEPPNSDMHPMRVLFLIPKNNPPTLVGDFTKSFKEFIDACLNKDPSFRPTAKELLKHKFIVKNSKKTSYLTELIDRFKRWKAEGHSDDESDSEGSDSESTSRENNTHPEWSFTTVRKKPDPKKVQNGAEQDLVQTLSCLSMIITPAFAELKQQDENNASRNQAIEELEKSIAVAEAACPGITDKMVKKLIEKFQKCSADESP
For data set [19], the target named is T6, Serine/threonine-protein kinase 24. Kind of data set: Inhibition of MST3 (unknown origin) expressed in intact HEK293T cells using NanoGlo as substrate incubated for 20 hrs by NanoBRET assay. It is filed as cell-based.
Target sequence in this assay (Q9Y6E0 whole entry): as the sequence (Q9Y6E0 whole entry) above
Data set [20] has as its target Tyrosine-protein kinase Fes/Fps (Homo sapiens, UniProt P07332). The data set can be described thus: Inhibition of FES (unknown origin) expressed in HEK293T cells using NanoGlo as substrate incubated for 20 hrs by NanoBRET assay. It is filed as cell-based.
Data set [21] relates to HCT-116. Kind of data set: Induction of apoptosis in human HCT-116 cells assessed as increase in cell count at 10 uM incubated for 48 hrs by Hoechst33342 staining based analysis. The class given is functional.
Data set [22] concerns HCT-116. Kind of data set: Induction of cell cycle arrest in human HCT-116 cells assessed as accumulation of cells at G2/M phase incubated for 72 hrs by FUCCI based analysis. It is filed as functional. The following applies: dose 10.0 µM.
The target of data set [23] is T7, Serine/threonine-protein kinase 4.
Data set [24] addresses T2, Serine/threonine-protein kinase 3.

Sequence of Casein kinase I isoform epsilon (P49674 whole entry, canonical isoform): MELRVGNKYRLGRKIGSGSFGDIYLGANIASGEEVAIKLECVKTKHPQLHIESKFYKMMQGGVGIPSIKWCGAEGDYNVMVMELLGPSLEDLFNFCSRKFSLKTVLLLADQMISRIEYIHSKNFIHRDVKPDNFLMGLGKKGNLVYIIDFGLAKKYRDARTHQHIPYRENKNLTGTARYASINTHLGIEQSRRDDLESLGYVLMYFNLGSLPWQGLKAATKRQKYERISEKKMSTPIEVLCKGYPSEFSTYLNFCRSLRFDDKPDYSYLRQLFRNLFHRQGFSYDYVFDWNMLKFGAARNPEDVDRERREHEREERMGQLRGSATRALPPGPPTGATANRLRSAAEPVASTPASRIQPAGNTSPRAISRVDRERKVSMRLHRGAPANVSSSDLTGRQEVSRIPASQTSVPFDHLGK
Sequence of Serine/threonine-protein kinase SIK2 (Q9H0K1 whole entry): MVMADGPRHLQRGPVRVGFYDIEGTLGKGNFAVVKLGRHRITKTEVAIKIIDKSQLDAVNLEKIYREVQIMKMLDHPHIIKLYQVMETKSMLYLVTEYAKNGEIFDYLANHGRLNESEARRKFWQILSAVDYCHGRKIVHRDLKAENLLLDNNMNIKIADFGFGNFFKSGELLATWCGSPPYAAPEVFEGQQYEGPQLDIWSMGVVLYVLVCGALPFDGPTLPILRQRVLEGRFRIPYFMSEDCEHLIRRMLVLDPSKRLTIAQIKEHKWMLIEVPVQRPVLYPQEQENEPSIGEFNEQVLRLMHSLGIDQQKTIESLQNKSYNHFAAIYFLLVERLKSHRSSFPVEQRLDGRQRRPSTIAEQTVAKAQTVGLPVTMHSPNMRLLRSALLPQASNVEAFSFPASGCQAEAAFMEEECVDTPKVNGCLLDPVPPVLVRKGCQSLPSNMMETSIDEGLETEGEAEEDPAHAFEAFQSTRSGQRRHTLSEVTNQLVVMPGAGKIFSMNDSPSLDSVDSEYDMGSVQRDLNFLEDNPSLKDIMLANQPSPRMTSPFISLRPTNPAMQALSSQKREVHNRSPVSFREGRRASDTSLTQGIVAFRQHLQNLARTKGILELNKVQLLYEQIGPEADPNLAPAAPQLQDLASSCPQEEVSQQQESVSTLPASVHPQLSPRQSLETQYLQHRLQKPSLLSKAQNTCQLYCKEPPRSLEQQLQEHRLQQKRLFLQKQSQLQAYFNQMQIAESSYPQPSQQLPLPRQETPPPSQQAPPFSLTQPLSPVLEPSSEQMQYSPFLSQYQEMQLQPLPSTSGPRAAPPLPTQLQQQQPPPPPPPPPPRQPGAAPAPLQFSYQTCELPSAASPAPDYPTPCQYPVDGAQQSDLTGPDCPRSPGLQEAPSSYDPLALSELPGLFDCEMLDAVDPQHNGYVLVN
Sequence of Tyrosine-protein kinase Fes/Fps (P07332 whole entry): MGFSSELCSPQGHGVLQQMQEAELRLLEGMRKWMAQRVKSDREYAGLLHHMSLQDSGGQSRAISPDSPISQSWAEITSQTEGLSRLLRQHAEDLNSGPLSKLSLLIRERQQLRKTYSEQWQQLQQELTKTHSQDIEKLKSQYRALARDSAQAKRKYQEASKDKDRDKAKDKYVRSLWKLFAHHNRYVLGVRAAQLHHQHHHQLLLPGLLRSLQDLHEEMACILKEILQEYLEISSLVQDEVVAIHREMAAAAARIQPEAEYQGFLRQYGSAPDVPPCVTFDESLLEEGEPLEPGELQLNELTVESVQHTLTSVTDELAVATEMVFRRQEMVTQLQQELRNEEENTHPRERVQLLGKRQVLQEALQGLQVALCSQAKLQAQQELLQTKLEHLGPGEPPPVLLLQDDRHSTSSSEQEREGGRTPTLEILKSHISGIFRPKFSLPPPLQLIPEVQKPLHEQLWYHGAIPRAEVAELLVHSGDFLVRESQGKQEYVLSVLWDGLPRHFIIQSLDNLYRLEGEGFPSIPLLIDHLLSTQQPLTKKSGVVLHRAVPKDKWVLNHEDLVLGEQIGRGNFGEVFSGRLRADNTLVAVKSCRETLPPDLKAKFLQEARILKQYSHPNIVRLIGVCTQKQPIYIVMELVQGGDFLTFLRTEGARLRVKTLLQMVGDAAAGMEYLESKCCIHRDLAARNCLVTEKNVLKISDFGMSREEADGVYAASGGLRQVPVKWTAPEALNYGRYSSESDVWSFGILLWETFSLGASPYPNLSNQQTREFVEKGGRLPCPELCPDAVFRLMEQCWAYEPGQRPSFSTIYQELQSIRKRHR
Sequence of Serine/threonine-protein kinase PAK 1 (Homo sapiens) (Q13153 whole entry): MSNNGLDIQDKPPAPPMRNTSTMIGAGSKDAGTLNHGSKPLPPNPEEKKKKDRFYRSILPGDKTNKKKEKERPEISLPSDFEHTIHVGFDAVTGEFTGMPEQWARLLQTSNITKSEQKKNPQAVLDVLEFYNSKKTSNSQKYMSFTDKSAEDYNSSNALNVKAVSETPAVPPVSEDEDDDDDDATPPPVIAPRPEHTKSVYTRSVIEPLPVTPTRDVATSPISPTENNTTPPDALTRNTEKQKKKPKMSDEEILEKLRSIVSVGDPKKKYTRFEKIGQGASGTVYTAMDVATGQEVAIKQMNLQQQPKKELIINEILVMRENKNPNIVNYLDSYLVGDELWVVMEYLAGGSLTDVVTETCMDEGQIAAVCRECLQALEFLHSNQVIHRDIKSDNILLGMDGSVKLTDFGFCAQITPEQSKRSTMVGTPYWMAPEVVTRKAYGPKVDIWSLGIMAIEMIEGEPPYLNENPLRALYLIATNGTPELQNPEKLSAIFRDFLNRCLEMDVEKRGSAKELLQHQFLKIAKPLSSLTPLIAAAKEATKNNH

On to `Cc1cccc(-c2ccc(-c3cc4cnc(NC(CO)CO)nc4n(CCCCN)c3=O)c(Cl)c2)n1`, for which the ΔTm was 2.1 °C in data set [1]; 5.1 °C in data set [6]; 4.6 °C in data set [10]; 10.6 °C in [16]; 8.1 °C in [18]. For the same compound, the EC50 was 17600 nM in data set [2]; more than 50000 nM in [4]; more than 5000 nM in data set [7]; 7400 nM in data set [9]; 583 nM in data set [14]; 81 nM in data set [15]. Further, the 50% effective concentration (EC50) in data set [17] is more than 50000 nM; in data set [19] it was 57 nM; in data set [20], more than 50000 nM. Moreover, the Activity is 30% with HCT-116 [3] and more than 90% in the data set on HCT-116 [11]. The result in the data set with HCT-116 [5] and in the data set with HCT-116 [12] was Active. Moreover, the result in the data set with HCT-116 [8] was inactive. In data set [13], the remaining at 1 h was determined as 90%.

In the case of `N#Cc1cccc(-c2c[nH]c3ncnc(N4CCOCC4)c23)c1`, in the data set with HCT-116 [21], the result was Active. For the same compound, the Activity result in the data set with HCT-116 [22] is “Dose-Dependent Effect”. For the same compound, the result with HCT-116 [8] was inactive.

As for `CN1C(=O)c2sccc2N(C)c2nc(Nc3ccc(S(N)(=O)=O)cc3)ncc21`, the concentration for half-maximal inhibition (IC50) in data set [23] worked out at 162 nM; in data set [24], 493 nM.
